US11198713B2, “Agents modulating beta-catenin functions and methods thereof” (FOG PHARMACEUTICALS, INC., priority 2017, dated 2021)
Values after ≈ are worked out from the molar mass of the structure shown. Like-named read-outs stand apart in the source and are kept apart here. Numbered stars: 1 amine (or outer) side, 2 acyl side, 3 side chain; on linkers, the order of the positions; unused ones are H or OH. Bridge positions count the residues as written; N and C are the ends. Square brackets hold non-standard residues; d marks the D form. Primed or numbered codes have the meaning given here. Peptide text beside a SMILES is read from it. MC″ = Monomer C = PyrR, pyrrolidine stapling residue bearing Alloc (allyl carbamate on pyrrolidine N); 3Aminoazetidine3carboxyl = O=C(C1(N[*:1])CN([*:3])C1)[*:2]; αMeDab(Me) = CN(CC[C@](C)(N[*:1])C(=O)[*:2])[*:3]; X1 = O=C([C@]1(N[*:1])CCN([*:3])C1)[*:2]; X2 = O=C(OCC=CCOC(=O)[*:2])[*:1]; S8 = C=CCCCCCC[C@](C)(N)C(=O)O; Aib = CC(C)(N)C(=O)O

T1: full-length beta-catenin (Axin site) (Homo sapiens, UniProt P35222)
T1 construct: 15 nM full-length beta-catenin, 20 nM FITC labeled peptide in buffer
T1 sequence (P35222 1-781): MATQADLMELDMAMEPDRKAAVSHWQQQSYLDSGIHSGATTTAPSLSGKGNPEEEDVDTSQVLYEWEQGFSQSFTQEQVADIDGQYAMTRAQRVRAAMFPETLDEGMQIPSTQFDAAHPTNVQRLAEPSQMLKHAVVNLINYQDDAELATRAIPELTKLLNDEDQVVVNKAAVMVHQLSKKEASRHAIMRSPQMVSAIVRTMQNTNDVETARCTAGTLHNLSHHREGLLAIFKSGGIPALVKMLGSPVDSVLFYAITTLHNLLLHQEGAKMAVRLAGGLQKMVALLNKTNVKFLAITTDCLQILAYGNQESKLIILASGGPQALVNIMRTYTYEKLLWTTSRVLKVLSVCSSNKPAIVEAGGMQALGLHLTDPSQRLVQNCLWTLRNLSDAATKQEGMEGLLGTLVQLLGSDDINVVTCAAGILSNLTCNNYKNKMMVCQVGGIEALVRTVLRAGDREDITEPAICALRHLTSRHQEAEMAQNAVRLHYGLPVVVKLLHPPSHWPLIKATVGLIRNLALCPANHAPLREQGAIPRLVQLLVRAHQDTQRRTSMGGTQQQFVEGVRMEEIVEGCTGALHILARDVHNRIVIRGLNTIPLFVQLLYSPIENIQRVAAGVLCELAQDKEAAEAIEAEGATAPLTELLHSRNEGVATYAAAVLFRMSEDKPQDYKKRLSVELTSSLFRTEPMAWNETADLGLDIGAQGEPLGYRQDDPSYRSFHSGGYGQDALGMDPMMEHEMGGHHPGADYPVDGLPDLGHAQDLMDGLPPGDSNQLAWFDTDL

T2: full-length beta-catenin (UniProt P35222 2-781, limits assumed)
T2 construct: mature; also called full-length ß-Catenin; β-catenin
T2 sequence (looked up): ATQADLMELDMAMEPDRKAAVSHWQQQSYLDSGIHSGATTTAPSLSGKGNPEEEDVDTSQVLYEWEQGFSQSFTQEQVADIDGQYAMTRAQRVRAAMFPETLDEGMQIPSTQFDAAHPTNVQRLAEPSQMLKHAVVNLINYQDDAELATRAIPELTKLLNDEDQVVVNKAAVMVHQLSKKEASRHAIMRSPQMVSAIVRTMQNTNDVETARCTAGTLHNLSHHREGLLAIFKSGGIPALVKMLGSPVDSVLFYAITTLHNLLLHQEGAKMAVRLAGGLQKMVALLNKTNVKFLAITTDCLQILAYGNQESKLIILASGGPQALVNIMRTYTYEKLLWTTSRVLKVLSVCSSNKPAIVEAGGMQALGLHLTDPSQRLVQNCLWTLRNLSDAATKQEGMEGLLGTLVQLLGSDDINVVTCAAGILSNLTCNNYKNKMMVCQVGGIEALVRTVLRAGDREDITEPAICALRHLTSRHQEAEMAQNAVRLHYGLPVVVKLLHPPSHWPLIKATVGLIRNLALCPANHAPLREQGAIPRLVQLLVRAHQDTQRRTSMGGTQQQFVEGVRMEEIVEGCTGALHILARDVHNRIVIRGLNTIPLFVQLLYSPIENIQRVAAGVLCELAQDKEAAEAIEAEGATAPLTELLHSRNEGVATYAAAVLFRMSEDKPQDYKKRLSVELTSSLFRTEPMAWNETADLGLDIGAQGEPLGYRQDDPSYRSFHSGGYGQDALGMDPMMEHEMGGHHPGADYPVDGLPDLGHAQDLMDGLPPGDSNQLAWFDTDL


Tests used:
[1] = biological target: T1, full-length beta-catenin (Axin site); test: Competition fluorescence polarization assay (Axin site probe); type: binding; details: competition fluorescence polarization, Table 2; read-out: in vitro FP EC50
Outline: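 Competition FP: 15 nM full-length β-catenin pre-incubated 5 min with 20 nM FITC-labelled stapled Axin-site peptide, then titrated peptide added (3-fold series from 5 μM) for 15 min in the dark. Buffer 50 mM Tris pH 8.0, 250 mM NaCl, 2% glycerol, 0.5 mM EDTA; duplicate reads.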

[2] = Solubility in DPBS (A280 of supernatant); type: physicochemical; details: DPBS
Experimental: Suitable assays for assessing solubility are widely known in the art and can be utilized in accordance with the present disclosure. In some embodiments, in an exemplary protocol, dried peptide was reconstituted in DPBS (DPBS, 1×, cell culture grade, Sigma D8537) in triplicate, vortexed, sonicated and then centrifuged. Absorbance of the supernatant was measured at A280 (Nanodrop 2000) and the concentration was determined using the extinction coefficient for tryptophan. Exemplary solubility data are presented in, e.g., Table 2.

[3] = biological target: T2, full-length beta-catenin; test: competition FP, grade of FP EC50 (+++: <=100 nM)
Experimental: In some embodiments, a competition fluorescence polarization assay is used to assess binding of provided compounds to beta-catenin. In an exemplary procedure, solutions of provided compounds, e.g., provided stapled peptides, were prepared in a buffer (e.g., 50 mM Tris pH 8.0, 250 mM NaCl, 2% glycerol, 0.5 mM EDTA, 0.02% w/v sodium azide) using a 3-fold serial dilution from 5 µM. Probe solution (15 nM full-length ß-Catenin, 20 nM FITC labeled peptide in buffer) was prepared and incubated for a period of time, e.g., 5 minutes, and the a volume, e.g., 40 µL per well plated in suitable plate, e.g., a black polystyrene 384-well plate (Corning). Equal volume of the serial diluted peptide was added to the plate and incubated protected from light for 15 minutes prior to read. Reads were performed on a Spectramax M5 (Molecular Devices) in duplicate. Suitable probe was FITC-PEG1-PQ-S5-ILD-S5-HVRRVWR (SEQ ID NO: 1) (hydrocarbon staple formed by two S5 via olefin metathesis) and/or FITC-bA-PQ-S5-ILD-S5-HVRRVWR (SEQ ID NO: 3) (hydrocarbon staple formed by two S5 via olefin metathesis). […] Another peptide, FPO217c (Ac-AR_8ILDAHIM$B5$RVW (SEQ ID NO: 280), with N-terminal proline removed and valine replaced with isoleucine compared to FP0025c) was prepared.

[4] = Table 3 Part A, read-out: Solubility in DPBS

Molecule | EC50 [1] [nM] | solubility ([2]; Table 2, read-out: Solubility) [µM] | solubility [2, 4] [µM] | FP EC50 [3] [nM]
CC[C@H](C)[C@H](NC(=O)[C@H](Cc1c[nH]cn1)NC(=O)[C@H](C)NC(=O)[C@H](CC(=O)O)NC(=O)[C@H](CC(C)C)NC(=O)[C@@H](NC(=O)C(C)(C)NC(=O)[C@H](C)NC(C)=O)[C@@H](C)CC)C(=O)NC(C)(C)C(=O)N[C@@H](CCCNC(=N)N)C(=O)N[C@H](C(=O)N[C@@H](Cc1c[nH]c2ccccc12)C(N)=O)C(C)C [FP0628_aib, Ac-A-Aib-I-L-D-A-H-I-Aib-R-V-W-NH2] (Ac-A[Aib]ILDAHI[Aib]RVW-NH2) | 100 to 500 | 88 (≈ 124 µg/mL) |  | 
Ac-PA[MC″]ILDAHV[S8]RVW-NH2 (staple 3-10) [FP0005c] |  |  |  | ≤ 100

The next lines start with the values.

EC50 [1] [nM] | solubility ([2]; Table 2, read-out: Solubility) [µM] | solubility [2, 4] [µM] | FP EC50 [3] [nM] | Molecule
< 100 | 63 (≈ 99.8 µg/mL) | 63 (≈ 99.8 µg/mL) |  | CC[C@H](C)[C@@H]1NC(=O)[C@H](Cc2c[nH]cn2)NC(=O)[C@H](C)NC(=O)[C@H](CC(=O)O)NC(=O)[C@H](CC(C)C)NC(=O)[C@H]([C@@H](C)CC)NC(=O)C2(NC(=O)[C@H](C)NC(C)=O)CN(C2)C(=O)OCC=CCOC(=O)N2CC[C@@](C(=O)N[C@@H](CCCNC(=N)N)C(=O)N[C@H](C(=O)N[C@@H](Cc3c[nH]c4ccccc34)C(N)=O)C(C)C)(C2)NC1=O [FP0617c, Ac-A-MA-I-L-D-A-H-I-MB-R-V-W-NH2] (Ac-A[3Aminoazetidine3carboxyl]ILDAHI[X1]RVW-NH2; linker 2-9 via X2)
< 100 | 40 (≈ 64.6 µg/mL) | 40 (≈ 64.6 µg/mL) |  | CC[C@H](C)[C@@H]1NC(=O)[C@H](Cc2c[nH]cn2)NC(=O)[C@H](C)NC(=O)[C@H](CC(=O)O)NC(=O)[C@H](CC(C)C)NC(=O)[C@H]([C@@H](C)CC)NC(=O)[C@@](C)(NC(=O)[C@H](C)NC(C)=O)CCN(C)C(=O)OCC=CCOC(=O)N2CC[C@@](C(=O)N[C@@H](CCCNC(=N)N)C(=O)N[C@H](C(=O)N[C@@H](Cc3c[nH]c4ccccc34)C(N)=O)C(C)C)(C2)NC1=O [FP0626c, Ac-A-MF-I-L-D-A-H-I-MB-R-V-W-NH2] (Ac-A[αMeDab(Me)]ILDAHI[X1]RVW-NH2; linker 2-9 via X2)
100 to 500 | 13 (≈ 20.8 µg/mL) |  |  | CC[C@H](C)[C@@H]1NC(=O)[C@H](Cc2c[nH]cn2)NC(=O)[C@H](C)NC(=O)[C@H](CC(=O)O)NC(=O)[C@H](CC(C)C)NC(=O)[C@H]([C@@H](C)CC)NC(=O)[C@](C)(NC(=O)[C@H](C)NC(C)=O)CCCCCCC=CCOC(=O)N2CC[C@@](C(=O)N[C@@H](CCCNC(=N)N)C(=O)N[C@](C)(C(=O)N[C@@H](Cc3c[nH]c4ccccc34)C(N)=O)C(C)C)(C2)NC1=O [FP0632c, Ac-A-R8-I-L-D-A-H-I-MB-R-aMeV-W-NH2]
